Experimental data: ChEMBL document CHEMBL5034043, “Bifunctional Compounds as SMARCA2 Degraders for Treating Cancer” (ACS Med Chem Lett, 2022)

Target: SWI/SNF-related matrix-associated actin-dependent regulator of chromatin subfamily A member 2 (Homo sapiens, UniProt P51531)
Assay: Induction of degradation of HiBit-tagged SMARCA2 in human A549 cells incubated for 6 hrs by NanoGlo HiBiT lytic assay
Format: cell-based

Sequence of SWI/SNF-related matrix-associated actin-dependent regulator of chromatin subfamily A member 2 (P51531 whole entry): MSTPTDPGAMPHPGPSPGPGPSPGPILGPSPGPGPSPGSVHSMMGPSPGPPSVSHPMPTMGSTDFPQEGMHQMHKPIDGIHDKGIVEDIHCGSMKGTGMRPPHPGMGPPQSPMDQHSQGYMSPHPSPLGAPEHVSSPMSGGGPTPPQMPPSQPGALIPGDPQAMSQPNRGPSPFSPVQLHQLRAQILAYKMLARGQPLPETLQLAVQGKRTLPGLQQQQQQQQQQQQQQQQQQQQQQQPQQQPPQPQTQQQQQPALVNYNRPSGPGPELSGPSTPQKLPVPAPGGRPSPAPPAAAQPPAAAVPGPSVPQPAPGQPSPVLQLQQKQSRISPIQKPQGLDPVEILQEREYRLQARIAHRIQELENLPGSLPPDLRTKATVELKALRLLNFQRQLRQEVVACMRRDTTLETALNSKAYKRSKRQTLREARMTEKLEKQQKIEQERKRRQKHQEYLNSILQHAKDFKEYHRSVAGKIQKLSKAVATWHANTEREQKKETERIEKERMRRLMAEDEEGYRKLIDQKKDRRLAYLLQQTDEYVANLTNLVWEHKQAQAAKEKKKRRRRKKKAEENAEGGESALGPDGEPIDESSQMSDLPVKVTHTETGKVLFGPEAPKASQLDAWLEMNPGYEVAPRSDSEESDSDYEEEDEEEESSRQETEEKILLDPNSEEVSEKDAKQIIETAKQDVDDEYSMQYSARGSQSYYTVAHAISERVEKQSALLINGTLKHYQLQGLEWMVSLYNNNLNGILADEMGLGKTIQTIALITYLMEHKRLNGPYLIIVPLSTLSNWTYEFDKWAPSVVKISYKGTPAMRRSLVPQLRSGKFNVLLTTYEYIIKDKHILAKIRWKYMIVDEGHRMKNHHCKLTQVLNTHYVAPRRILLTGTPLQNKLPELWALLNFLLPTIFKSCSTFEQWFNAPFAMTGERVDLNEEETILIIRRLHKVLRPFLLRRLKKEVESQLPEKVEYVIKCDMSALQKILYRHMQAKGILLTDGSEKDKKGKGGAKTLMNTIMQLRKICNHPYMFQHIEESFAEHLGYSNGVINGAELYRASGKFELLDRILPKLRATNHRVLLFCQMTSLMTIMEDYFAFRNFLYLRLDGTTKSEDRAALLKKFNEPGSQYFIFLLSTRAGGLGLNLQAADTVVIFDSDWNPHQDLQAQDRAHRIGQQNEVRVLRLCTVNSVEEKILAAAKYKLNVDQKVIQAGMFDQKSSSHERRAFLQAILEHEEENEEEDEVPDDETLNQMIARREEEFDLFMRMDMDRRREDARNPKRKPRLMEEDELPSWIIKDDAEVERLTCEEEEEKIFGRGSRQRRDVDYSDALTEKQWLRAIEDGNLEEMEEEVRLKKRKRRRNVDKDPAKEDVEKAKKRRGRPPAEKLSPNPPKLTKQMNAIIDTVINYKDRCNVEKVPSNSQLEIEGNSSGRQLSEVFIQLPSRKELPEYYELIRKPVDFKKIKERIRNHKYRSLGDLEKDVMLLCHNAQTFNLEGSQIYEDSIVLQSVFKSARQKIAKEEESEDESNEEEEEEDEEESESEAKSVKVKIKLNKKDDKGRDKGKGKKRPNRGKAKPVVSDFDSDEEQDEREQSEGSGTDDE

| Compound | DC50 [nM] |
| --- | --- |
| Nc1nnc(-c2ccccc2O)cc1N1CC2CCC(C1)N2c1cccc(OCCN2CCN(CCCC3CCN(c4ccc5c(c4)C(=O)N(C4CCC(=O)NC4=O)C5=O)CC3)CC2)c1 (stereo unspecified) | 2 |
| Nc1nnc(-c2ccccc2O)cc1N1CCC(C(=O)N2CCC(C(=O)N3CCN(c4ccc(C5CCC(=O)NC5=O)cc4)CC3)CC2)(c2ccccc2)CC1 (stereo unspecified) | 3 |
| Nc1nnc(-c2ccccc2O)cc1N1CC2CCC(C1)N2c1cccc(OCCN2CCN(CC3CCN(c4ccc5c(c4)C(=O)N(C4CCC(=O)NC4=O)C5=O)CC3)CC2)c1 (stereo unspecified) | 2 |
| Nc1nnc(-c2ccccc2O)cc1N1CC(Oc2cccc(CN3CCN(C(=O)CN4CCC(c5ccc(NC6CCC(=O)NC6=O)cc5)CC4)CC3)c2)C1 (stereo unspecified) | 3 |
| Nc1nnc(-c2cc(F)ccc2O)cc1N1CC2CCC(C1)N2c1cccc(CN2CCN(C(=O)C3CCN(c4ccc5c(c4)C(=O)N(C4CCC(=O)NC4=O)C5=O)CC3)CC2)c1 (stereo unspecified) | 3 |
| Nc1nnc(-c2ccccc2O)cc1N1CCN(c2cccc(CN3CCN(C(=O)C4CCN(c5ccc6c(c5)C(=O)N(C5CCC(=O)NC5=O)C6=O)CC4)CC3)c2)C2(CC2)C1 (stereo unspecified) | 4 |
